Results published in patent US20220226270A1, “VERY-LONG-CHAIN POLYUNSATURATED FATTY ACIDS, ELOVANOID HYDROXYLATED DERIVATIVES, AND METHODS OF USE” (Board of Supervisors of Louisiana State University and …, priority 2019, published 2022).

Tested on: cerebral cortical mixed neuronal cells
Experiment: Uncompensated oxidative stress (TNFα plus H2O2) in cerebral cortical mixed neuronal cultures
Assay type: cell-based, rat
Settings: for UOS dose-dependent increase of apoptotic nuclei: 200 nM (FIG. 16B); for neuroprotection against uncompensated oxidative stress: 200 nM, 12 h TNFα 10 ng/mL and H2O2 (50, 100 or 200 μM)
From the text: Primary cultures of cortical neurons: Primary cultures of cortical and hippocampal neurons were harvested from 18-day-old embryos (E18) taken from timed-pregnant, two-month-old Sprague-Dawley (SD) rats (Charles River Lab., Wilmington, Mass.). Briefly, timed-pregnant SD rats were euthanized and embryos were collected in sterile conditions. Embryonic brains were dissected out by forceps on ice and placed in a petri dish containing ice-cold Hank's Balanced Salt Solution (HBSS) (GIBCO). Meninges were removed under a dissecting microscope and cortical tissues were chopped into small pieces with micro-spring scissors. These tissues were transferred to 15 ml tubes containing trypsin-EDTA (0.025% in HBSS) and DNase I. The tubes were incubated in 37° C. chamber for 15 mins and were agitated every 5 mins. After stopping the trypsinization with 5 ml 10% FBS, these tissues were triturated 15 times with a fire polished Pasteur pipet. Cell clumps were left to settle for 2 mins and the supernatant was transferred to a 15 ml Eppendorf tube. The supernatant was filtered through a 70 μm pore-sized filter (Corning cell strainer) and centrifuged for 5 mins at 1000 rpm. The cells were then resuspended in Neurobasal medium (GIBCO) containing 2% B27 (GIBCO) and 2% N2 (GIBCO) supplements, along with 0.5 mM glutamine, 50 U/ml penicillin/streptomycin.
Cells were counted using a Neubauer hemocytometer. 1×10^6 cells were seeded on poly-D-lysine-coated 12 well cell culture dish (CORNING) and cultured in incubator (37° C., 5% CO2). Culture medium was first replaced after 24 h, then half of the medium was replaced with fresh medium every three days. As a result, approximately, 90% purity of neurons was obtained as determined by class-III-β tubulin, GFAP and Hoechst 33258 staining. Cells were maintained in culture for about 2 weeks until they were exposed to uncompensated oxidative stress, OGD, or NMDA excitotoxicity.
After 90 mins of OGD exposure, cells were returned to the original medium (Neurobasal medium (GIBCO) containing 2% B27 (GIBCO) and 2% N2 (GIBCO) supplements, along with 0.5 mM glutamine, 50 U/ml penicillin/streptomycin) and placed in a normoxic chamber (37° C., 5% CO2) for 2 h. Then the medium was changed with medium containing either ELV-N32 or ELV-N34 [500 nM] and maintained in a normoxic chamber (37° C., 5% CO2) for 12 h, after which cells were sampled and assayed for cell viability using different methods as previously described (25-28). Cerebral cortical mixed neuronal cells or hippocampal cells in culture were exposed to either NMDA or uncompensated oxidative stress (UOS) for 12 h by addition of either NMDA (25 μM, 50 μM, or 100 μM) concentration or by the addition of TNFα (10 ng/mL) and H2O2 (50 μM, 100 μM, or 200 μM). Cell viability and neuroprotection in the presence of ELV-N32, ELV-N34, 32:6, or 34:6 were assayed after 12 h.
Hoechst staining and unbiased image analysis: Cells were washed with 1× Dulbecco's Phosphate Buffered Saline (DPBS) containing no calcium or magnesium (GIBCO) and fixed for 10 mins using ice-cold 4% paraformaldehyde (PFA) followed by 15 mins incubation in 100% methanol. Cells were washed with 1× Phosphate Buffered Saline (PBS) pH 7.4 (GIBCO) and incubated in PBS containing 20 μM Hoechst 33258 (Molecular Probes) for 20 mins. Cells were then washed 3 times with 1× PBS and stored in 1× PBS at 4° C. until they were imaged for microscopy.
One 4×4 tile mosaic was acquired from the center of each well using a Zeiss 510 Meta laser confocal microscope and LSM 510 Meta software. Images were imported into image analysis software ImageJ (National Institutes of Health, Bethesda, Md.) and batch processed using custom macros. An Otsu auto threshold was applied to each image of Hoechst-stained nuclei, and the area of each detected object was recorded. Objects with areas <10 μm^2 were excluded from analysis. To estimate percentage non-pyknotic nuclei, a size cutoff value was chosen above which objects were assumed to be non-pyknotic. […]

Compound | UOS dose-dependent increase of apoptotic nuclei | neuroprotection against uncompensated oxidative stress | neuroprotection against uncompensated oxidative stress (listed as ELV-N32 Na)
CC/C=C\C[C@H](O)\C=C/C=C/C=C/[C@H](O)C/C=C\C/C=C\CCCCCCCCCCCCC(=O)OC [ELV-N32-Me, methyl (14Z,17Z,20R,21E,23E,25Z,27S,29Z)-20,27-dihydroxydotriaconta-14,17,21,23,25,29-hexaenoate] | counteracted | evoked neuroprotection | –
CC/C=C\C[C@H](O)\C=C/C=C/C=C/[C@H](O)C/C=C\C/C=C\CCCCCCCCCCCCC(=O)[O-].[Na+] [ELV-N32-Na, sodium (14Z,17Z,20R,21E,23E,25Z,27S,29Z)-20,27-dihydroxydotriaconta-14,17,21,23,25,29-hexaenoate] | counteracted | evoked neuroprotection | neuroprotection elicited
CC/C=C\C[C@H](O)\C=C/C=C/C=C/[C@H](O)C/C=C\C/C=C\CCCCCCCCCCCCCCC(=O)[O-].[Na+] [ELV-N34-Na, sodium (16Z,19Z,22R,23E,25E,27Z,29S,31Z)-22,29-dihydroxytetratriaconta-16,19,23,25,27,31-hexaenoate] | – | neuroprotection elicited | –
